Activity calls are given as the source filed them. Unless noted, the rule behind the calls is not given here.

Assay [1] has as its system Candida albicans. In words: growth inhibition of azole-resistant C. albicans, dose response, CaCi-8 strain, Alamar Blue, dry powder, set 3 (AID 488905). The assay is classed as functional, organism-based.
For assay [2], the system named is Candida albicans. In words: reversal of fluconazole resistance in C. albicans, dose response, CaCi-2 strain, Alamar Blue, dry powder, set 3 (AID 488907). It counts as functional, organism-based. (In general: Resazurin is reduced to fluorescent resorufin, in cell work by metabolically active cells.)
Assay [3] deals with T1, CAAX prenyl protease 2 (Saccharomyces cerevisiae S288c, UniProt Q03530).
T1 sequence (Q03530 whole entry): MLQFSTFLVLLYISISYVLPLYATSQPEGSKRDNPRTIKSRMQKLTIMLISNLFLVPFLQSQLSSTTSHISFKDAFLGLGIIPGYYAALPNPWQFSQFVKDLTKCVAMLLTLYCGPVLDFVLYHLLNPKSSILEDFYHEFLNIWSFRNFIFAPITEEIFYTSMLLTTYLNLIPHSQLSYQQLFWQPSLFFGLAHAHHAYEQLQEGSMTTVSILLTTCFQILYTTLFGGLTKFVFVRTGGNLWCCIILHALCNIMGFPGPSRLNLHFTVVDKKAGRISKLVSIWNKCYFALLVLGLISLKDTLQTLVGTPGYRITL
The assay is classed as biochemical.

For assay [4], the target named is T1, CAAX prenyl protease 2. In words: yeast Rce1 CaaX protease inhibitors, dose response, biochemical, plate reader, dry powder retest (AID 588851).
Assay [5] addresses T2, Corticotropin-releasing factor receptor 2/Corticotropin-releasing factor-binding protein (Homo sapiens, UniProt P24387+Q13324).
T2 sequence (Q13324 whole entry): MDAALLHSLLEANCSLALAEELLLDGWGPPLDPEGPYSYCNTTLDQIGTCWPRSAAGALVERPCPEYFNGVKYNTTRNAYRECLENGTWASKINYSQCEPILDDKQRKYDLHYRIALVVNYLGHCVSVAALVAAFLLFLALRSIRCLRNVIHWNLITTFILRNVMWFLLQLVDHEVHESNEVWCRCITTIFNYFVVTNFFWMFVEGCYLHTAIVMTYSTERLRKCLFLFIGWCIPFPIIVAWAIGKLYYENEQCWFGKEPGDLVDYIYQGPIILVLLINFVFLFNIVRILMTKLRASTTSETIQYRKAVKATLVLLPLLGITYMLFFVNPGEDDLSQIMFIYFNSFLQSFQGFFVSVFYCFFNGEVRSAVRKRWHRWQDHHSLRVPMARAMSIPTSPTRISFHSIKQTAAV
T2 sequence (P24387 whole entry): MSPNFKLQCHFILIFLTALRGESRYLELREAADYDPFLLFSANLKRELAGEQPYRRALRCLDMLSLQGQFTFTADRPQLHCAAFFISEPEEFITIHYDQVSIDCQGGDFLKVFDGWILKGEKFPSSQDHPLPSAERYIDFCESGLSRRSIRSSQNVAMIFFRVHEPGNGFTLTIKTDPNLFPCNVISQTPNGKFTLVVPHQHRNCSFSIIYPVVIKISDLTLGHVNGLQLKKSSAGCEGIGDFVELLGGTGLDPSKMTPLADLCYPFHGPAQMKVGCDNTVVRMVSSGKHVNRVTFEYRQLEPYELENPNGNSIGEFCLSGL
In words: activators of CRF receptor 2 with binding protein – uHTS hits, confirmation (AID 602473). The assay is classed as functional. The following applies: read-out: EC50_Mean.

Assay [6] can be described thus: CRF-BP/CRF-R2 complex antagonists, dose response, cell-based, uHTS hits, 384-well (AID 651639). It counts as functional, Homo sapiens. The following applies: read-out: IC50_Mean.
Assay [7] has as its target T2, Corticotropin-releasing factor receptor 2/Corticotropin-releasing factor-binding protein. In words: Dose Response confirmation of uHTS hits for small molecule antagonists of the CRF-binding protein and CRF-R2 receptor complex. The assay is classed as functional. The following applies: read-out: IC50_Mean.

Turning to `O=C(c1ccc(Cl)cc1)N1CCN(c2nc3ccccc3s2)CC1`, the concentration at half-maximal activity (AC50) – broadly, the concentration at which the activity in the assay is half-maximal – was 0.565 µM (active) in the assay with Candida albicans [1] and 1.41 µM (active) in the assay with Candida albicans [2].
For `CCOc1ccc(-n2c(SCc3ccc([N+](=O)[O-])cc3)nnc2-c2ccc(OC)cc2)cc1`, the half-maximal activity concentration (AC50) on CAAX prenyl protease 2 [3] is 0.102 µM (active); on CAAX prenyl protease 2 [4] it was 1.12 µM (active). Besides, the EC50 in assay [5] was > 53 µM (inactive). The IC50 in assay [6] is > 20 µM (inactive); in assay [7] it was 1.68 µM (active).

The record behind these values is ChEMBL document CHEMBL1201862, “PubChem BioAssay data set” (2004).
